From ChEMBL document CHEMBL3751719, “D1-like receptors distinguishing thieno-azecine regioisomers” (Medchemcomm, 2015)
Calls of active or inactive are those of the source. No cut-off for these calls is given here.

Columns and labels:
D(2) dopamine receptor [1] = target: T1, D(2) dopamine receptor (Homo sapiens, UniProt P14416); test: Displacement of [3H]spiperone from human cloned D2 dopamine receptor incubated for 90 mins by radioligand binding assay
D(4) dopamine receptor [2] = target: T2, D(4) dopamine receptor (Homo sapiens, UniProt P21917); test: Binding affinity to human cloned D4 dopamine receptor incubated for 90 mins by radioligand binding assay
T2 sequence (P21917 whole entry): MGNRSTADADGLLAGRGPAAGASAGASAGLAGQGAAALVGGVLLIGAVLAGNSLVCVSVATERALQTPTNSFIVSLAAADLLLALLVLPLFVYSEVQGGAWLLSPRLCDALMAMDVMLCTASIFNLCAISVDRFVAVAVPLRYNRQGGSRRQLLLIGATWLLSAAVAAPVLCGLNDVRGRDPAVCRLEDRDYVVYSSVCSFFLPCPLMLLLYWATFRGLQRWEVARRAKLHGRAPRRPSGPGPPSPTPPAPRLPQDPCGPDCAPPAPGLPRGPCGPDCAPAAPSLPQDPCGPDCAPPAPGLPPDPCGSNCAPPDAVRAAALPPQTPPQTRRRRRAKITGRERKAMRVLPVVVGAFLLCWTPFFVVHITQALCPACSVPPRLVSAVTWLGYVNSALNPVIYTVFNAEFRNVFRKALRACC

D(1A) dopamine receptor [3] = target: T3, D(1A) dopamine receptor (Homo sapiens, UniProt P21728); test: Displacement of [3H]SCH-23390 from human cloned D1 dopamine receptor incubated for 90 mins by radioligand binding assay
D(1B) dopamine receptor [4] = target: T4, D(1B) dopamine receptor (Homo sapiens, UniProt P21918); test: Antagonist activity at human D5 dopamine receptor expressed in HEK293 cells assessed as inhibition of SKF38393-induced intracellular calcium level preincubated at 10 uM by oregon green staining based microplate fluorescence reader analysis; format: functional, cell-based
D(2) dopamine receptor [5] = target: T1, D(2) dopamine receptor; test: Antagonist activity at human D2L dopamine receptor expressed in HEK293 cells assessed as inhibition of quinpirole-induced intracellular calcium level preincubated at 10 uM by oregon green staining based microplate fluorescence reader analysis; format: functional, cell-based
D(1B) dopamine receptor [6] = target: T4, D(1B) dopamine receptor; test: Binding affinity to human cloned D5 dopamine receptor incubated for 90 mins by radioligand binding assay
D(1A) dopamine receptor [7] = target: T3, D(1A) dopamine receptor; test: Antagonist activity at human D1 dopamine receptor expressed in HEK293 cells assessed as inhibition of SKF38393-induced intracellular calcium level preincubated at 10 uM by oregon green staining based microplate fluorescence reader analysis; format: functional, cell-based
Homo sapiens = species: Homo sapiens; test: Selectivity index, ratio of Ki for human cloned D1 dopamine receptor to Ki for human cloned D5 dopamine receptor
D(3) dopamine receptor [8] = target: T5, D(3) dopamine receptor (Homo sapiens, UniProt P35462); test: Binding affinity to human cloned D3 dopamine receptor incubated for 90 mins by radioligand binding assay
D(1B) dopamine receptor [9] = target: T4, D(1B) dopamine receptor; test: Displacement of [3H]SCH-23390 from human cloned D5 dopamine receptor expressed in HEKT cells incubated for 90 mins by scintillation counting based radioligand binding assay; format: cell-based
D(4) dopamine receptor [10] = target: T2, D(4) dopamine receptor
D(3) dopamine receptor [11] = target: T5, D(3) dopamine receptor; test: Displacement of [3H]N-methylspiperone from human cloned D3 dopamine receptor expressed in HEKT cells incubated for 90 mins by scintillation counting based radioligand binding assay; format: cell-based
D(1A) dopamine receptor [12] = target: T3, D(1A) dopamine receptor; test: Displacement of [3H]SCH-23390 from human cloned D1 dopamine receptor expressed in HEKT cells incubated for 90 mins by scintillation counting based radioligand binding assay; format: cell-based

T5 sequence (P35462 whole entry): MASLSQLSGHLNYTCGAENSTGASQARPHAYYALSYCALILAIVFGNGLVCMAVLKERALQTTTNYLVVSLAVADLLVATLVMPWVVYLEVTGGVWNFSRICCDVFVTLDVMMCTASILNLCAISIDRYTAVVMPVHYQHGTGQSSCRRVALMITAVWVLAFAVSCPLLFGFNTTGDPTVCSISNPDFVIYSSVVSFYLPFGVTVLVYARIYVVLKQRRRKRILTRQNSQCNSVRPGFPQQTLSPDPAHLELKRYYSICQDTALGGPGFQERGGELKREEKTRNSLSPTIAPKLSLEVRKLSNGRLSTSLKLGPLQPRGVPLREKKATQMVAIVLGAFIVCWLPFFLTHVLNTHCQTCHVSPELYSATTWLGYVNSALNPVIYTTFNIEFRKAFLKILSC
T3 sequence (P21728 whole entry): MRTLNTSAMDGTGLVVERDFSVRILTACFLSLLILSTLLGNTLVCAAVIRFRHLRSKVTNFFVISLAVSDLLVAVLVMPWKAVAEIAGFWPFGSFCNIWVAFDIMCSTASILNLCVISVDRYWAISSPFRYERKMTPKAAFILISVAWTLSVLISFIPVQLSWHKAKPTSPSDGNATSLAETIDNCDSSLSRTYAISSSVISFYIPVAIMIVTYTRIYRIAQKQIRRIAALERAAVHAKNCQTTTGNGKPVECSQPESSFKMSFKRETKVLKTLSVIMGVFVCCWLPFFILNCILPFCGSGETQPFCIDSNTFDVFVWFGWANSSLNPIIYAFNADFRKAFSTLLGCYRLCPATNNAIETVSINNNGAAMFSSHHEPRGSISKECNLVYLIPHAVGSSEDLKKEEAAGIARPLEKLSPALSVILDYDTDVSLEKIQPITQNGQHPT
T4 sequence (P21918 whole entry): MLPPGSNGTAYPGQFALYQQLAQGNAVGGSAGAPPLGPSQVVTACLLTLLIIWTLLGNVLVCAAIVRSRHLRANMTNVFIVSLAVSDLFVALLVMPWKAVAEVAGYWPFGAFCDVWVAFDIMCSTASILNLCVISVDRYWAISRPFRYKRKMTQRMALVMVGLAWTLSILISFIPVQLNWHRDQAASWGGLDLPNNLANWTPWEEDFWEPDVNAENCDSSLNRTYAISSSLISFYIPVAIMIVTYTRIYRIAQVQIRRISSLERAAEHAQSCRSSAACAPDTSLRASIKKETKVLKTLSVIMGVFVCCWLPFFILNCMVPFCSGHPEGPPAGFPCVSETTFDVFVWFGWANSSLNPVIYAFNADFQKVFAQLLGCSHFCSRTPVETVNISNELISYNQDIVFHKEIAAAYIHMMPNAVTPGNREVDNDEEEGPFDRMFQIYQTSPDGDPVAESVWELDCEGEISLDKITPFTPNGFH
T1 sequence (P14416 whole entry): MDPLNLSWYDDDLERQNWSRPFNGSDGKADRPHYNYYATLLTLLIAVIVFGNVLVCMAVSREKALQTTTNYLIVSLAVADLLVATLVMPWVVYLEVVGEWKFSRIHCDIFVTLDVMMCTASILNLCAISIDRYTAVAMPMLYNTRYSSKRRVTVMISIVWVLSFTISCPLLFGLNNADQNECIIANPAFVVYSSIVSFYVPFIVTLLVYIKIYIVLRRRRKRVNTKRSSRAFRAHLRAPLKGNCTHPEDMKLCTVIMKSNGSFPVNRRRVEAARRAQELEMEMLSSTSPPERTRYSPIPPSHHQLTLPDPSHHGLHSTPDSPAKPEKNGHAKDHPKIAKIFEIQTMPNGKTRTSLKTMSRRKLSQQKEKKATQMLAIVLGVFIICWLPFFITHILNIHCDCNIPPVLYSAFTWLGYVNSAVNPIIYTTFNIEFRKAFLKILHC

Ki (D(2) dopamine receptor [1]) [nM] | Ki (D(4) dopamine receptor [2]) [nM] | Ki (D(1A) dopamine receptor [3]) [nM] | inhibition (D(1B) dopamine receptor [4]) | inhibition (D(2) dopamine receptor [5]) | Ki (D(1B) dopamine receptor [6]) [nM] | inhibition (D(1A) dopamine receptor [7]) | Ratio Ki (Homo sapiens) | Ki (D(3) dopamine receptor [8]) [nM] | Ki (D(4) dopamine receptor [10]) [nM] | Ki (D(3) dopamine receptor [11]) [nM] | Ki (D(1A) dopamine receptor [12]) [nM] | Structure (SMILES) | Ki (D(1B) dopamine receptor [9]) [nM]
45 | 188 | 60 | Active | Active | 3 | Active | 20 | 24 | – | – | – | CN1CCc2ccccc2Cc2sccc2CC1 | –
– | – | – | – | – | – | – | – | – | – | – | – | Cc1cc2c(s1)Nc1ccccc1N=C2N1CCN(C)CC1 [OLANZAPINE] | 90
> 1000 | > 1000 | > 1000 | – | – | > 1000 | – | – | > 1000 | – | – | – | CCOC(=O)N1CCc2ccccc2Cc2sccc2CC1 | –
1.5 | 72 | 40 | Active | Active | 1.9 | Active | 20 | 18 | – | – | – | CN1CCc2ccccc2Cc2sc3ccccc3c2CC1 | –
– | – | – | – | – | – | – | – | – | 9 | 9.4 | 8.9 | CN1CC2c3ccccc3Oc3ccc(Cl)cc3C2C1 (configuration not stated) [ASENAPINE] | –
> 1000 | > 1000 | > 1000 | – | – | > 1000 | – | – | > 1000 | – | – | – | CCOC(=O)N1CCc2ccccc2Cc2ccsc2CC1 | –
> 1000 | > 1000 | > 1000 | – | – | > 1000 | – | – | > 1000 | – | – | – | CCOC(=O)N1CCc2ccccc2Cc2sc3ccccc3c2CC1 | –
